# Measured values published in paper PMC6792352, “Limited Chemical Structural Diversity Found to Modulate Thyroid Hormone Receptor in the Tox21 Chemical Library” (Environmental Health Perspectives, 2019).
# Counter-ions that a name gives are not always drawn. Like-named read-outs stand apart in the source and are kept apart here.
# Test system: GH3-TRE-Luc cell line
# Conditions: read-out: AC50 (uM) modified / 1000, viability, 1 nM T3 present, 24 h
compound,measurement,setting,value
O=S(=O)(O)c1ccc2c(N=Nc3ccc(S(=O)(=O)O)c4ccccc34)c(O)c(S(=O)(=O)O)cc2c1 [Amaranth],CC50,Tox21_110001=Tox21_112280,19.3 µM
CN(C)CCC=C1c2ccccc2CCc2ccccc21 [Amitriptyline hydrochloride],CC50,Tox21_110001=Tox21_113122,18.1 µM
same,CC50,Tox21_110001=Tox21_201278,8.86 µM
same,CC50,Tox21_110001=Tox21_303612,13.7 µM
O=C(O)CS [Ammonium thioglycolate],CC50,Tox21_110001=Tox21_202751,58.7 µM
Clc1ccc2c(c1)C(N1CCNCC1)=Nc1ccccc1O2 [Amoxapine],CC50,Tox21_110001=Tox21_302352,20.3 µM
CN1CCc2cccc3c2[C@H]1Cc1ccc(O)c(O)c1-3 [Apomorphine],CC50,Tox21_110001=Tox21_110967,27.3 µM
COc1ccc(CCN2CCC(Nc3nc4ccccc4n3Cc3ccc(F)cc3)CC2)cc1 [Astemizole],CC50,Tox21_110001=Tox21_110680,4.42 µM
same,CC50,Tox21_110001=Tox21_200095,0.889 µM
CCCCCCCCCCCC[N+](C)(C)Cc1ccccc1 [Benzyldodecyldimethylammonium bromide],CC50,Tox21_110001=Tox21_113091,5.39 µM
Oc1c(Cl)cc(Cl)cc1Sc1cc(Cl)cc(Cl)c1O [Bithionol],CC50,Tox21_110001=Tox21_110832,12.4 µM
same,CC50,Tox21_110001=Tox21_200384,6.76 µM
same,CC50,Tox21_110001=Tox21_302919,20.3 µM
Cc1c(N)nc([C@H](CC(N)=O)NC[C@H](N)C(N)=O)nc1C(=O)N[C@H](C(=O)N[C@H](C)[C@@H](O)[C@H](C)C(=O)N[C@H](C(=O)NCCc1nc(-c2nc(C(=O)NCCC[S+](C)C)cs2)cs1)[C@@H](C)O)[C@@H](O[C@@H]1O[C@@H](CO)[C@@H](O)[C@H](O)[C@@H]1O[C@H]1O[C@H](CO)[C@@H](O)[C@H](OC(N)=O)[C@@H]1O)c1c[nH]cn1 [Bleomycin sulfate],CC50,Tox21_110001=Tox21_113599,1.85 µM
COc1ccc(C(=O)/C(Br)=C\C(=O)O)cc1 [Bromebric acid],CC50,Tox21_110001=Tox21_111900,31.6 µM
CN(Cc1ccc(C(C)(C)C)cc1)Cc1cccc2ccccc12 [Butenafine hydrochloride],CC50,Tox21_110001=Tox21_112918,28.6 µM
Cc1cc(C(C)(C)C)c(O)c(C(C)(C)C)c1 [Butylated hydroxytoluene],CC50,Tox21_110001=Tox21_113537,42.9 µM
same,CC50,Tox21_110001=Tox21_201093,76.4 µM
CC1=CC(=C(c2ccc(N)cc2)c2ccc(N)cc2)C=CC1=N [C.I. Basic Violet 14],CC50,Tox21_110001=Tox21_112288,15.1 µM
same,CC50,Tox21_110001=Tox21_202790,5.54 µM
Cc1cc(-c2ccc(/N=N/c3ccc4c(S(=O)(=O)O)cc(S(=O)(=O)O)c(N)c4c3O)c(C)c2)ccc1/N=N/c1ccc2c(S(=O)(=O)O)cc(S(=O)(=O)O)c(N)c2c1O [C.I. Direct Blue 53],CC50,Tox21_110001=Tox21_113237,21.8 µM
Cn1c(=O)c2c(ncn2C)n(C)c1=O [Caffeine],CC50,Tox21_110001=Tox21_201685,41.2 µM
O=C1C2CC=CCC2C(=O)N1SC(Cl)(Cl)Cl (stereo not drawn) [Captan],CC50,Tox21_110001=Tox21_111065,4.99 µM
same,CC50,Tox21_110001=Tox21_201276,76 µM
same,CC50,Tox21_110001=Tox21_300772,2.54 µM
NC(N)=O [Carbamide peroxide],CC50,Tox21_110001=Tox21_302451,69 µM
COC(=O)Nc1nc2ccccc2[nH]1 [Carbendazim],CC50,Tox21_110001=Tox21_300478,11.4 µM
Cc1ccc(-c2cc(C(F)(F)F)nn2-c2ccc(S(N)(=O)=O)cc2)cc1 [Celecoxib],CC50,Tox21_110001=Tox21_111135,21.2 µM
same,CC50,Tox21_110001=Tox21_201964,46.6 µM
same,CC50,Tox21_110001=Tox21_300599,62.4 µM
[H]/N=C(\N/C(=N/[H])NCCCCCCNC(=N)NC(=N)Nc1ccc(Cl)cc1)Nc1ccc(Cl)cc1 [Chlorhexidine diacetate],CC50,Tox21_110001=Tox21_302363,5.83 µM
[H]/N=C(\N/C(=N/[H])NCCCCCCNC(=N)NC(=N)Nc1ccc(Cl)cc1)Nc1ccc(Cl)cc1 [Chlorhexidine dihydrochloride],CC50,Tox21_110001=Tox21_302689,5.24 µM
[H]/N=C(\N/C(=N/[H])NCCCCCCNC(=N)NC(=N)Nc1ccc(Cl)cc1)Nc1ccc(Cl)cc1 [Chlorhexidine],CC50,Tox21_110001=Tox21_110325,12.4 µM
same,CC50,Tox21_110001=Tox21_201404,7.06 µM
same,CC50,Tox21_110001=Tox21_303445,6.48 µM
CCN(CC)CCCC(C)Nc1ccnc2cc(Cl)ccc12 (stereo not drawn) [Chloroquine bis(phosphate)],CC50,Tox21_110001=Tox21_110115,19.6 µM
N#Cc1c(Cl)c(Cl)c(Cl)c(C#N)c1Cl [Chlorothalonil],CC50,Tox21_110001=Tox21_201687,0.523 µM
same,CC50,Tox21_110001=Tox21_300862,0.188 µM
COc1ccc(C(Cl)=C(c2ccc(OC)cc2)c2ccc(OC)cc2)cc1 [Chlorotrianisene],CC50,Tox21_110001=Tox21_202361,13.6 µM
CN(C)CCCN1c2ccccc2Sc2ccc(Cl)cc21 [Chlorpromazine],CC50,Tox21_110001=Tox21_110120,8.03 µM
Nc1nc(Cl)nc2c1ncn2[C@H]1C[C@H](O)[C@@H](CO)O1 [Cladribine],CC50,Tox21_110001=Tox21_110834,0.386 µM
same,CC50,Tox21_110001=Tox21_300596,0.166 µM
CN(C)CCCN1c2ccccc2CCc2ccc(Cl)cc21 [Clomipramine],CC50,Tox21_110001=Tox21_110117,8.96 µM
COc1cc(/C=C/C(=O)CC(=O)/C=C/c2ccc(O)c(OC)c2)ccc1O [Curcumin],CC50,Tox21_110001=Tox21_110803,22.1 µM
same,CC50,Tox21_110001=Tox21_201116,26.5 µM
C[C@@H]1C[C@@H]([C@H](O)CC2CC(=O)NC(=O)C2)C(=O)[C@@H](C)C1 [Cycloheximide],CC50,Tox21_110001=Tox21_113580,0.256 µM
same,CC50,Tox21_110001=Tox21_201158,0.0922 µM
same,CC50,Tox21_110001=Tox21_303652,1.49 µM
Nc1ccn([C@@H]2O[C@H](CO)[C@@H](O)[C@@H]2O)c(=O)n1 [Cytarabine hydrochloride],CC50,Tox21_110001=Tox21_300488,0.11 µM
Nc1ccn([C@@H]2O[C@H](CO)[C@@H](O)[C@@H]2O)c(=O)n1 [Cytarabine],CC50,Tox21_110001=Tox21_111203,0.708 µM
same,CC50,Tox21_110001=Tox21_301971,0.237 µM
